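All cell lines were grown in 96-well plates and treated with compound for 48 hours. GI50 marks 50% less growth.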 The source made the active and inactive calls. Cut-off read from the data, not from the text of the source: active = GI50 up to about 1.1 µM and inactive = higher.
Tests used:
Experiment in all cases: DTP human tumour cell line panel, 48 h
[1] = system: SN12C
[2] = system: LOX IMVI
[3] = system: RXF 393
[4] = system: PC-3
[5] = system: UACC-62
[6] = system: HOP-92
[7] = system: EKVX
[8] = system: OVCAR-3
[9] = system: NCI-H460
[10] = system: NCI-H522
[11] = system: SF-295
[12] = system: OVCAR-5
[13] = system: MOLT-4
[14] = system: SW-620
[15] = system: HCC 2998
[16] = system: OVCAR-8
[17] = system: CCRF-CEM
[18] = system: NCI/ADR-RES
[19] = system: SK-MEL-28
[20] = system: U-251

Measured: GI50

Nc1cc(S(N)(=O)=O)ccc1SSc1ccc(S(N)(=O)=O)cc1N
inactive: [1] > 100 µM | [2] > 100 µM | [3] > 100 µM | [4] > 100 µM | [5] > 100 µM | [6] > 100 µM | [7] > 100 µM | [8] > 100 µM | [9] > 100 µM | [10] > 100 µM | [11] > 100 µM | [12] > 100 µM | [13] 62.7 µM | [14] > 100 µM | [15] > 100 µM | [16] > 100 µM | [17] 8.49 µM | [18] > 100 µM | [19] > 100 µM | [20] > 100 µM

Fc1nc(-c2c3ccccc3c3sc4ccccc4n23)nc(N2CCOCCOCCOCCOCC2)n1
inactive: [1] > 100 µM | [2] > 100 µM | [3] 18.5 µM | [4] > 100 µM | [5] > 100 µM | [6] 20.9 µM | [7] > 100 µM | [8] 63.1 µM | [9] > 100 µM | [10] > 100 µM | [11] 63 µM | [12] > 100 µM | [13] 66.4 µM | [14] > 100 µM | [15] > 100 µM | [16] 40.2 µM | [17] 54.5 µM | [18] 56.8 µM | [19] > 100 µM | [20] 44.8 µM

c1csc(-c2cscc2-c2cccs2)c1
inactive: [1] > 100 µM | [2] 43.2 µM | [3] 27.6 µM | [4] 5.38 µM | [5] 72.3 µM | [6] 78.5 µM | [7] 58.3 µM | [8] 17.4 µM | [9] > 100 µM | [11] 32.9 µM | [12] 24.1 µM | [13] 34.5 µM | [14] 48.3 µM | [15] 22.9 µM | [16] 57.4 µM | [17] 44.1 µM | [18] 42.9 µM | [19] > 100 µM | [20] > 100 µM

COc1cc(NC(C)=O)ccc1C(=O)N/N=C/c1ccc(Cl)cc1Cl
inactive: [1] 22.4 µM | [2] 69.2 µM | [3] 20.7 µM | [4] 34.8 µM | [5] 31.6 µM | [6] 35.4 µM | [7] 32.7 µM | [8] 52.8 µM | [10] 45.2 µM | [11] 57 µM | [12] 46.3 µM | [13] 73.8 µM | [14] > 100 µM | [15] 57.1 µM | [16] 48.9 µM | [17] 95.3 µM | [18] > 100 µM | [19] 59.4 µM

Reference: ChEMBL document CHEMBL1201862, “PubChem BioAssay data set” (2004)
